# Data: patent US20100022495A1, “MODULATING ENDOPLASMIC RETICULUM STRESS IN THE TREATMENT OF TUBEROUS SCLEROSIS” (PRESIDENT AND FELLOWS OF HARVARD COLLEGE, priority 2005, published 2010)
# Experiments:
# TSC1−/− MEFs = assay: ER stress parameters (western blot, XBP-1 rt-PCR) in TSC1-deficient MEFs; format: cell-based, mouse; details: for splicing of XBP-1 mRNA (UPR activation): thapsigargin 0.05 nM, tunicamycin 0.002 ug/ml, compared with controls
# Protocol: (§1) All of the mouse embryonic fibroblast (MEF) cell lines (TSC1+/+, TSC1−/−, TSC2+/+, TSC2−/−) were cultured in medium containing DMEM-H+10% fetal bovine serum (FBS)+1% PS (penicillin-streptomycin complex) in 175 cm^2 cell culture flasks using standard methods. Upon reaching 90% confluency, cells were split into 10 cm dishes at 30-40% confluency and grown again in DMEM-H+10% FBS+1% PS to about 60% confluency for experiments.
# […] As a vehicle control, DMSO was not present at a sufficiently high concentration to act as a chemical chaperone. […] At the end of the incubation, the media was removed and dishes were immediately frozen in liquid nitrogen and stored at −80° C. untile further use.
# (§2) Protein extracts were prepared with a lysis buffer containing 25 mM Tris-HCl (pH 7.4), 2 mM Na3VO4, 10 mM NaF, 10 mM Na4P2O7, 1 mM EGTA, 1 mM EDTA, 1% NP-40, 5 ug/ml leupeptin, 5 ug/ml aprotinin, 10 nM okadaic acid, and 1 mM phenylmethylsulfonyl fluoride (PMSF). Immunoprecipitations and immunoblotting experiments were performed with 200 and 75 μg total protein, respectively without any freeze-thaw cycles from individual aliquots.
# (§3) Protein concentrations were normalized and the desired amounts were aliquotted into tubes. Laemelli buffer was added to a 1× final concentration and the samples were boiled for five minutes. After boiling, the samples were incubated at room temperature for 20 minutes. The boiled, cooled lysates were centrifuged at 14,000 rpm and subject to SDS-PAGE. Proteins were transferred to PVDF membranes for western blotting.
# (§4) Membrane blotting was performed using standard techniques and reagents. Appropriate modification depending on the antibodies used and other considerations, is within the ability of those skilled in the art. Membranes were blocked in 10% blocking reagent for 1 hour prior to exposure to primary antibody in tris-buffered saline-tween (TBST), pH 7.4, overnight at 4° C. Following overnight incubation, membranes were washed in TBST for 3×20 minutes and placed into secondary antibody for 1 hour. Subsequently the membrane was washed 3×20 minutes in TBST. After the washing period, the membranes were developed by using a chemiluminescence kit and the bands were visualized using a phospho imager system (VersaDoc Imaging System, Model 3000).
# (§5) Phosphorylation state of the ER stress markers PERK and s6K1 were analyzed in both wild type (TSC2+/+ and TSC1+/+) and TSC-deficient (TSC2−/− and TSC1−/−) MEFs. Cells were cultured and treated with DMSO (vehicle control) or rapamycin as discussed above. Rapamycin inhibits signaling through the mTOR pathway which is required for ER stress response. The DMSO was present at too low of a concentration to act as a chemical chaperone. Cells were harvested and protein and RNA were isolated. Protein samples were resolved by SDS-PAGE and proteins were transferred to PVDF membrane for western blotting as described above. RNA was subjected to rt-PCR using probes designed to mouse XBP-1 to detect splicing.
# (§6) Phosphorylation state of the ER stress markers PERK, eIF2α cJun, JNK and s6K1, and the level of spliced XBP-1 were analyzed in both wild type and TSC-deficient MEFs. Cells were treated with PBS (vehicle control) or PBA (chemical chaperone) as discussed above. Cells were harvested, samples were resolved by SDS-PAGE, proteins were transferred to PVDF membrane, and western blots were performed as described above.
# TSC2−/− MEFs = assay: ER stress parameters (western blot, XBP-1 rt-PCR) in TSC2-deficient MEFs; format: cell-based, mouse; details: for splicing of XBP-1 mRNA (UPR activation): thapsigargin 0.05 nM, tunicamycin 0.002 ug/ml, compared with controls
# Protocol: as §1
# At the start of the experiment, cells were placed in fresh media and treated with 200 nM Rapamycin or 10 mM […], and DMSO or PBS as respective vehicle controls (PBA was dissolved in PBS, and rapamycin was dissolved in DMSO), for 19 hours. As a vehicle control, DMSO was not present at a sufficiently high concentration to act as a chemical chaperone. Cells were then washed 3 times with serum-free DMEM-H+1% PS and incubated for 5 hours in serum free DMEM-H+1% PS in the presence of rapamycin or PBA and their appropriate vehicle controls. At the end of the incubation, the media was removed and dishes were immediately frozen in liquid nitrogen and stored at −80° C. untile further use.
# as §2, §3, §4, §5, §6
# TSC-2−/− cells = assay: Insulin signaling (IRS-1, IRS-2, Akt western blot) in TSC-2−/− cells; format: cell-based, mouse; details: PBA treatment
# Protocol: (§7) For insulin signaling experiments, cells were treated exactly the same way as for analysis of ER stress parameters. At the end of a 5-hour starvation period, cells were either stimulated with PBS or with 100 nM insulin for 5 minutes for analysis of ISR phosphorylation analysis, or 15 minutes for Akt phosphorylation analysis. Samples were harvested and subjected to western blotting as described above. Blots were probed with primary antibodies targeted to total and phosphorylated insulin receptor substrate (IRS)-1, and -2, and Akt, a downstream target in the insulin signaling pathway.
# [1] = tested on: c-Jun Amino Terminal Kinase-1 (JNK-1); assay: c-Jun Amino Terminal Kinase (JNK) kinase assay on immunoprecipitates from TSC2-deficient cells; format: cell-based, mouse; details: PBA 10 mM
# Protocol: Cell lysates were prepared as above, and subsequently incubated with primary antibody and Sepharose beads, either Protein A Sepharose or Protein G Sepharose depending on the antibody. The samples were incubated on a rotating apparatus overnight at 4° C. Subsequently, beads were centrifuged at 14,000 rpm and washed 3 times with cold lysis buffer. If immunoprecipitates were to be subjected to SDS-PAGE, they were boiled in 2× Laemmli buffer for 5 minutes prior to loading.
# Following immunoprecipitation the beads were washed 3 times with lysis buffer as described above, and two times with JNK kinase assay buffer (25 mM HEPES (pH: 7.4), 20 mM MgCl2, 20 mM β-glycerophosphate, 0.5 mM EGTA, 0.5 mM NaF, 0.5 mM NaOrthoVanadate, 1 mM PMSF) for equilibration. After washing with kinase buffer, the beads were incubated in 17 μl kinase buffer, 1 μl [^32P]γ-ATP and 4 μg of c-Jun fusion protein at 30° C. for 20 minutes. The reaction was terminated by the addition of Laemmli buffer. The samples were resolved by SDS-page and transferred to a PVDF membrane as described above. Phosphorylated c-Jun bands were visualized prior to western blotting.
# Phosphorylation state of the ER stress markers PERK, eIF2α cJun, JNK and s6K1, and the level of spliced XBP-1 were analyzed in both wild type and TSC-deficient MEFs. Cells were treated with PBS (vehicle control) or PBA (chemical chaperone) as discussed above. […]
# TSC-1−/− cells = assay: Insulin signaling (IRS-1, IRS-2, Akt western blot) in TSC-1−/− cells; format: cell-based, mouse; details: PBA treatment
# Protocol: as §7
# IRS-1 [2] = assay: Degradation pattern of IRS-1 after cycloheximide addition in TSC-1 deficient cells; format: cell-based, mouse; details: pretreatment with PBA (an hour without PBA)
# Text: (§8) It has been previously shown that when ER stress is induced acutely, IRS-1 is highly phosphorylated at serine 307 residue, and insulin induced tyrosine phosphorylation is blocked. […] Eight hour stimulation with thapsigargin in the presence of MG132 leads to ubiquitination of IRS-1. […] As mentioned above, IRS-1 degradation was increased in both TSC1- and TSC2-deficient cells. […] IRS-1 protein levels became totally undetectable in an hour after cycloheximide addition, whereas pretreatment with PBA extends this period up to 4 hours.
# ER stress = details: western blot after treatment of the animal with the compound; cited from earlier work
# TSC2−/− cells = assay: Apoptosis (Cell Death Elisa, caspase 3 or PARP cleavage) in TSC2−/− cells; format: cell-based, mouse
# TSC1−/− cells = assay: Apoptosis (Cell Death Elisa, caspase 3 or PARP cleavage) in TSC1−/− cells; format: cell-based, mouse
# Protocol: (§9) ER stress can cause apoptosis. […] Wild-type and TSC1−/− cells were plated in 96 well plates in DMEM-H+10% FBS+1% PS at 40-50% confluence. Upon reaching about 80% confluence, the cells were washed with DMEM-H without FBS and treated with the ER stress inducer thapsigargin (10 nM) or DMSO (vehicle control) for 6 hours in serum-free DMEM-H+1% PS. Apoptosis was analyzed by using Cell Death Elisa Kit using the manufacturer's instructions, or by detection of caspase 3 or PARP cleavage.
# IRS-1 [3] = assay: IRS-1 degradation and ubiquitination during ER stress induced by thapsigargin or tunicamycin; format: cell-based; details: for degradation of IRS-1: prolonged exposure to ER stress
# Text: as §8
# Wild-type control cells = assay: Apoptosis in wild-type control cells; format: cell-based, mouse; details: thapsigargin, same time period (6 hours)
# Protocol: as §9
# [4] = tested on: kidney adenomas and liver hemangiomas of TSC-2+/− mice; format: in vivo; details: thapsigargin 1 mg/kg
# Protocol: To address this, we have used around ˜1 year old TSC-2+/−mice for thapsigargin (1 mg/kg) or vehicle treatment. After 7 days of thapsigargin administration we have analyzed the apoptosis with tunnel assay in the kidney adenomas. […] Increased tunnel positivity in liver hemangiomas after thapsigargin treatment was also observed, but lack of liver hemangiomas in vehicle treated group, limits the conclusions that can be drawn from the study.
# wild type control cells = assay: UPR activation by low doses of ER stress inducers in wild type control cells; format: cell-based, mouse; details: thapsigargin 0.05 nM, tunicamycin 0.002 ug/ml
# Protocol: as §1
# TSC-deficient cells and their corresponding control cells were exposed to extremely low doses of thapsigargin (0.05 nM) and tunicamycin (0.002 ug/ml) at which the UPR is not activated in wild type control cells. TSC1- and TSC2-deficient cells responded to the ER stress inducers by activating the UPR as determined by increased splicing of XBP-1 mRNA when compared with their controls.
# [5] = TSC1-deficient MEFs, western blot, rapamycin 200 nM, 12 hours, PBA 10 mM
# [6] = TSC2-deficient MEFs, western blot, rapamycin 200 nM, 12 hours, PBA 10 mM
# [7] = 8 hours in the presence of 26S proteosome inhibitor epoxomicin
molecule,measurement,setting,value
C[C@@H]1C[C@@H]([C@H](O)CC2CC(=O)NC(=O)C2)C(=O)[C@@H](C)C1 [Cyclohexamide],PERK phosphorylation,TSC1−/− MEFs; [5],decrease
same,PERK phosphorylation,TSC2−/− MEFs; [6],decrease
"O=C(O)CCCc1ccccc1 [PBA, 4-phenyl butyric acid]",PERK phosphorylation,TSC1−/− MEFs; [5],block
same,S6 phosphorylation,TSC1−/− MEFs; [5],significant decrease
same,s6K1 phosphorylation,TSC1−/− MEFs; [5],significant decrease
same,eIF2α phosphorylation,"TSC1−/− MEFs; TSC1-deficient cells, PBA 10 mM",substantial decrease
same,XBP-1 mRNA splicing after glucose starvation,TSC1−/− MEFs; TSC-1 deficient cells glucose starved in the presence of 4-PBA,significantly reduced
same,glucose starvation induced CHOP transcription,"TSC1−/− MEFs; TSC-1 deficient cells, 4-PBA treatment",significantly reduced
same,insulin induced IRS-1 tyrosine phosphorylation,TSC-2−/− cells; 100 nM insulin 5 minutes,improved
same,insulin induced IRS-2 tyrosine phosphorylation,TSC-2−/− cells; 100 nM insulin 5 minutes,improved
same,insulin induced Akt phosphorylation,TSC-2−/− cells; 100 nM insulin 15 minutes,improved
same,protein levels of IRS-1,TSC-2−/− cells,increase
same,c-Jun Amino Terminal Kinase-1 (JNK-1) activity,[1],suppressed
same,insulin induced IRS-1 tyrosine phosphorylation,TSC-1−/− cells; 100 nM insulin 5 minutes,improved
same,insulin induced IRS-2 tyrosine phosphorylation,TSC-1−/− cells; 100 nM insulin 5 minutes,improved
same,insulin induced Akt phosphorylation,TSC-1−/− cells; 100 nM insulin 15 minutes,improved
same,protein levels of IRS-1,TSC-1−/− cells,increase
same,PERK phosphorylation,TSC2−/− MEFs; [6],blocked
same,S6 phosphorylation,TSC2−/− MEFs; [6],significant decrease
same,eIF2α phosphorylation,"TSC2−/− MEFs; TSC2-deficient cells, PBA 10 mM",blocked
same,XBP-1 mRNA splicing after glucose starvation,TSC2−/− MEFs; TSC-2 deficient cells glucose starved in the presence of 4-PBA,significantly reduced
same,period until IRS-1 protein levels become undetectable after cycloheximide addition,IRS-1 [2],up to 4 hours
same,"ER stress in animals (phosphorylation of PERK, activation of JNK, phosphorylation of IRE-1α)",ER stress,regulate ER stress
same,rescue from ER stress inducer sensitivity,"TSC2−/− cells; TSC2-deficient cells, treatment with chemical chaperone",at least partially rescued
same,Glucose starvation induced PARP and caspase-3 cleavage,"TSC2−/− cells; TSC-2−/− cells, 4-PBA treatment",blocked
same,Glucose starvation induced PARP and caspase-3 cleavage,"TSC1−/− cells; TSC-1−/− cells, 4-PBA treatment",blocked
"C[C@H](CCC(=O)NCCS(=O)(=O)O)[C@H]1CC[C@H]2[C@@H]3[C@@H](O)C[C@@H]4C[C@H](O)CC[C@]4(C)[C@H]3CC[C@]12C [TUDCA, tauroursodeoxycholic acid]","ER stress in animals (phosphorylation of PERK, activation of JNK, phosphorylation of IRE-1α)",ER stress,regulate ER stress
C/C=C(/C)C(=O)O[C@H]1C(C)=C2[C@H]([C@@H]1OC(=O)CCCCCCC)[C@@](C)(OC(C)=O)C[C@H](OC(=O)CCC)[C@@]1(O)[C@H]2OC(=O)[C@@]1(C)O [thapsigargin],splicing of XBP-1 mRNA (UPR activation),TSC1−/− MEFs; TSC1-deficient cells,increased
same,splicing of XBP-1 mRNA (UPR activation),TSC2−/− MEFs; TSC2-deficient cells,increased
same,ubiquitination of IRS-1,IRS-1 [3]; [7],severe ubiquitination
same,ubiquitination of IRS-1,IRS-1 [3]; eight hour stimulation in the presence of MG132,ubiquitination
same,degradation of IRS-1,IRS-1 [3],degradation of IRS-1
same,apoptosis,Wild-type control cells,no apoptosis
same,tunnel positivity in liver hemangiomas,[4]; no liver hemangiomas in vehicle treated group,Increased
same,tunnel assay positive cells in kidney adenomas,"[4]; ~1 year old TSC-2+/− mice, after 7 days",clear up-regulation
same,UPR activation,wild type control cells,not activated
same,apoptosis,"TSC2−/− cells; TSC2−/− cells, thapsigargin, after 6 hours",massive apoptosis
same,PARP and caspase-3 cleavage,"TSC2−/− cells; TSC-2−/− cells, induction of ER stress",increased
same,cleaved caspase-3 or PARP cleavage,"TSC1−/− cells; TSC1−/− cells after thapsigargin treatment, compared with controls",significantly induced
same,apoptosis,"TSC1−/− cells; TSC1−/− cells, thapsigargin 10 nM, after 6 hours",massive apoptosis
tunicamycin,splicing of XBP-1 mRNA (UPR activation),TSC1−/− MEFs; TSC1-deficient cells,increased
same,splicing of XBP-1 mRNA (UPR activation),TSC2−/− MEFs; TSC2-deficient cells,increased
same,ubiquitination of IRS-1,IRS-1 [3]; [7],severe ubiquitination
same,degradation of IRS-1,IRS-1 [3],degradation of IRS-1
same,UPR activation,wild type control cells,not activated
